These results are taken from patent US12691101B2, “Compound and method for preventing or treating of respiratory diseases comprising the same as an active ingredient” (YONSEI UNIVERSITY, UNIVERSITY - INDUSTRY FOUNDATION (UIF), priority 2019, dated 2026).

The first assay concerns the target T1, human wild-type (WT)-pendrin (Homo sapiens, UniProt O43511).
T1 construct: expressed in transfected cells
T1 sequence (O43511 1-780): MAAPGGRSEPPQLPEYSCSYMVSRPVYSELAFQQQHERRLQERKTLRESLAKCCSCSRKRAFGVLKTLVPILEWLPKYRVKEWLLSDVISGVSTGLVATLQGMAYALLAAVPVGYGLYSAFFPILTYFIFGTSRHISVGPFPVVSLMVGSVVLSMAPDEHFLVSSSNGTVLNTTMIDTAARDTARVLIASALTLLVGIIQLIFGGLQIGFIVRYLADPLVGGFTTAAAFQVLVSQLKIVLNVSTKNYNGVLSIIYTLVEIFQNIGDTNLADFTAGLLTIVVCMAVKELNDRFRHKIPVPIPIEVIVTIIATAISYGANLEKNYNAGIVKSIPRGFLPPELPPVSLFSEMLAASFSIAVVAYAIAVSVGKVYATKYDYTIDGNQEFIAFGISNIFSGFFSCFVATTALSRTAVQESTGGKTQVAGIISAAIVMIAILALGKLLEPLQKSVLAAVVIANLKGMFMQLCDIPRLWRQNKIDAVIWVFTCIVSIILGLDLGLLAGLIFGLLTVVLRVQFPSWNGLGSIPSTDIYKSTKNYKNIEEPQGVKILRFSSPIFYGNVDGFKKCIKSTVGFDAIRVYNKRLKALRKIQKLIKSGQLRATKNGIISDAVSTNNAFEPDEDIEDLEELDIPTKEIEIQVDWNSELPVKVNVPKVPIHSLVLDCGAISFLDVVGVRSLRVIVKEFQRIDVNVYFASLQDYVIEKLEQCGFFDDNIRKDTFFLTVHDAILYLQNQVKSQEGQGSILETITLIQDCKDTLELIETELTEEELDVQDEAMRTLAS
As to the kind of experiment: Pendrin-mediated Cl^−/I^− exchange activity, YFP fluorescence in CHO-K1 cells. The class given is cell-based. As to conditions: CHO-K1, 30 μM; read-out: Pendrin inhibitory activity at 30 μM (%).
`CC(=O)Nc1ccc(S(=O)(=O)Oc2ccccc2C=C2N=C(c3ccc(Cl)cc3)OC2=O)cc1` [F77, 2-((2-(4-Chlorophenyl)-5-oxooxazol-4(5H)-ylidene)methyl)phenyl4-acetamido benzenesulfonate]: the inhibition at 30 µM was found to be 2.6%.
Still for that read-out and setting: with `O=C1OC(c2ccccc2)=NC1=Cc1ccc(OC(=O)c2ccco2)cc1` [F78, 4-((5-oxo-2-phenyloxazol-4(5H)-ylidene)methyl)phenylfuran-2-carboxylate] the figure was 1.7%; with `Cc1ccc(/C=C2\N=C(c3ccc(C4=N/C(=C\c5ccc(C)o5)C(=O)O4)cc3)OC2=O)o1` [F79, 2,2′-(1,4-phenylene)bis(4-((5-methylfuran-2-yl)methylene)oxazol-5(4H)-one)], 3.2%.
On to `CC(C)(C)c1ccc(C2=NC(=Cc3ccccc3OS(=O)(=O)c3ccccc3)C(=O)O2)cc1` [F80, 2-((2-(4-(tert-butyl)phenyl)-5-oxooxazol-4(5H)-ylidene)methyl)phenylbenznesulfonate], for which the inhibition at 30 µM turned out to be 1.9%.
Regarding `CC(=O)n1cc(C=C2N=C(c3ccc(C(C)(C)C)cc3)OC2=O)c2ccccc21` [F81, 4-((1-Acetyl-1H-indol-3-yl)methylene)-2-(4-(tert-butyl)phenyl)oxazol-5 (4H)-one], the inhibition at 30 µM was found to be 3.4%.
The same measure, in the same setting: with `CC(=O)n1cc(C=C2N=C(c3ccc(C(C)(C)C)cc3)OC2=O)c(-c2ccccc2)n1` [F82, 4-((1-Acetyl-3-phenyl-1H-pyrazol-4-yl)methylene)-2-(4-(tert-butyl)phenyl)oxazol-5 (4H)-one] the figure was 2.7%; with `Cc1ccc(C2=NC(=Cc3cn(-c4ccccc4)nc3-c3ccccc3)C(=O)O2)cc1` [F83, 4-((1,3-Diphenyl-1H-pyrazol-4-yl)methylene)-2-(p-tolyl)oxazol-5(4H)-one], 2.4%.
As for `COc1ccc2[nH]c(=O)c(C=C3N=C(c4ccccc4)OC3=O)cc2c1` [F84, 4-((6-Methoxy-2-oxo-1,2-dihydroquinolin-3-yl)methylene)-2-phenyloxazol-5(4H)-one], the inhibition at 30 µM is 3.4%.
Regarding `O=C1OC(c2ccccc2)=NC1=C1C=C(c2ccccc2)SC(c2ccccc2)=C1` [F85, 4-(2,6-Diphenyl-4H-thiopyran-4-ylidene)-2-phenyloxazol-5(4H)-one], the inhibition at 30 µM turned out to be 2.9%.
Take `COc1ccc(C2=NC(=Cc3cccs3)C(=O)O2)cc1` [F87, 2-(4-Methoxyphenyl)-4-(thiophen-2-ylmethylene)oxazol-5 (4H)-one]: the inhibition at 30 µM came out at 3.6%.
For `O=C1OC(c2ccc(Cl)cc2)=NC1=Cc1cccs1` [F88, 2-(4-Chlorophenyl)-4-(thiophen-2-ylmethylene)oxazol-5(4H)-one], the inhibition at 30 µM was found to be 2.4%.
For the compound `O=C1OC(c2cccs2)=NC1=Cc1cccs1` [F89, 2-(Thiophen-2-yl)-4-(thiophen-2-ylmethylene)oxazol-5(4H)-one], the inhibition at 30 µM is 2.8%.
With `CC(=O)Oc1ccc(C2=NC(=Cc3cccs3)C(=O)O2)cc1` [F90, 4-(5-Oxo-4-(thiophen-2-ylmethylene)-4,5-dihydrooxazol-2-yl)phenylacetate], the inhibition at 30 µM is 3.3%.
For `O=C1OC(c2ccc(Cl)c([N+](=O)[O-])c2)=NC1=Cc1cccs1` [F91, 2-(4-Chloro-3-nitrophenyl)-4-(thiophen-2-ylmethylene)oxazol-5(4H)-one], the inhibition at 30 µM came out at 3.9%.
On to `O=C1OC(c2ccccc2Cl)=NC1=Cc1cccs1` [F92, 2-(2-Chlorophenyl)-4-(thiophen-2-ylmethylene)oxazol-5(4H)-one], for which the inhibition at 30 µM worked out at 2.2%.
Regarding `O=C1OC(c2ccc([N+](=O)[O-])cc2Cl)=NC1=Cc1cccs1` [F93, 2-(2-Chloro-4-nitrophenyl)-4-(thiophen-2-ylmethylene)oxazol-5(4H)-one], the inhibition at 30 µM turned out to be 2.5%.
In the case of `COc1cc(C2=NC(=Cc3cccs3)C(=O)O2)cc(OC)c1OC` [F94, 4-(Thiophen-2-ylmethylene)-2-(3,4,5-trimethoxyphenyl)oxazol-5(4H)-one], the inhibition at 30 µM came to 1.9%.
Still for that read-out and setting: with `O=C1OC(c2ccc(Oc3ccccc3)cc2)=NC1=Cc1cccs1` [F95, 2-(4-Phenoxyphenyl)-4-(thiophen-2-ylmethylene)oxazol-5(4H)-one] the figure was 3.8%.
Take `Cc1ccc(C=C2N=C(c3ccc(C(C)(C)C)cc3)OC2=O)s1` [F96, 2-(4-(tert-butyl)phenyl)-4-((5-methylthiophen-2-yl)methylene)oxazol-5(4H)-one]: the inhibition at 30 µM was determined as 3.4%.
With `O=C1OC(c2ccc3c(c2)OCO3)=NC1=Cc1cccs1` [F97, 2-(Benzo[d][1,3]dioxoyl-5-yl)-4-(thiophen-2-ylmethylene)oxazol-5(4H)-one], the inhibition at 30 µM was 2.9%.
Same read-out and setting: next, `O=C1OC(c2ccc(N3CCCC3=O)cc2)=NC1=Cc1cccs1` [F98, 2-(4-(2-oxopyrrolidin-1-yl)phenyl)-4-(thiophen-2-ylmethylene)oxazol-5 (4H)-one]: 3.3%.
With `COc1ccc(C2=NC(=Cc3ccc(Cl)s3)C(=O)O2)cc1` [F99, 4-((5-Chlorothiophen-2-yl)methylene)-2-(4-methoxyphenyl)oxazol-5(4H)-one], the inhibition at 30 µM was determined as 2.4%.
For `O=C1OC(c2ccc3c(c2)OCO3)=NC1=Cc1ccc(N2CCCCC2)s1` [F100, 2-(Benzo[d][1,3]dioxoyl-5-yl)-4-((5-(piperidin-1-yl)thiophen-2-yl)methylene)oxazol-5(4H)-one], the inhibition at 30 µM worked out at 2.5%.
On to `COc1cc(C2=NC(=Cc3cccs3)C(=O)O2)ccc1OC(F)F` [F102, 2-(4-(Difluoromethoxy)-3-methoxyphenyl)-4-(thiophen-2-ylmethylene)oxazol-5 (4H)-one], for which the inhibition at 30 µM was 2.7%.
For `CCc1sc(C2=NC(=Cc3cccs3)C(=O)O2)cc1C` [F103, 2-(5-Ethyl-4-methylthiophen-2-yl)-4-(thiophen-2-ylmethylene)oxazol-5(4H)-one], the inhibition at 30 µM was 3.7%.
On to `COc1cccc(C2=NC(=Cc3cccs3)C(=O)O2)c1` [F104, 2-(3-Methoxyphenyl)-4-(thiophen-2-ylmethylene)oxazol-5(4H)-one], for which the inhibition at 30 µM was determined as 3.5%.
For `CN(C)c1ccc(C=C2N=C(c3ccc4ccccc4c3)OC2=O)s1` [F105, 4-((5-(Dimethylamino)thiophen-2-yl)methylene)-2-(naphthalen-2-yl)oxazol-5(4H)-one], the inhibition at 30 µM came out at 3.1%.
In the case of `CC(=O)Nc1ccc(C2=NC(=Cc3cc(Br)cs3)C(=O)O2)cc1` [F106, N-(4-(4-((4-bromothiophen-2-yl)methylene)-5-oxo-4,5-dihydrooxazol-2-yl)phenyl)acetamide], the inhibition at 30 µM amounted to 3.3%.
Regarding `CC(=O)Nc1ccc(C2=NC(=Cc3ccc(Br)s3)C(=O)O2)cc1` [F107, N-(4-(4-((5-bromothiophen-2-yl)methylene)-5-oxo-4,5-dihydrooxazol-2-yl)phenyl)acetamide], the inhibition at 30 µM was found to be 2.9%.
Still for that read-out and setting: next, `CC(=O)Nc1ccc(C2=NC(=Cc3ccc(N(C)C)s3)C(=O)O2)cc1` [F108, N-(4-(4-((5-(dimethylamino)thiophen-2-yl)methylene)-5-oxo-4,5-dihydrooxazol-2-yl)phenyl) acetamide]: 2.3%.
As to `O=C1OC(c2ccc(OCc3ccccc3)cc2)=NC1=Cc1cccs1` [F109, 2-(4-(Benzyloxy)phenyl)-4-(thiophen-2-ylmethylene)oxazol-5(4H)-one], the inhibition at 30 µM was 2.4%.
Same read-out and setting: next, `O=C1OC(/C=C/c2ccccc2)=NC1=Cc1cccs1` [F110, 2-((E)-styryl)-4-(thiophen-2-ylmethylene)oxazol-5 (4H)-one]: 2.9%.
Same read-out and setting: next, `Cc1ccc(C2=NC(=Cc3cccs3)C(=O)O2)s1` [F111, 2-(5-methylthiophen-2-yl)-4-(thiophen-2-ylmethylene)oxazol-5 (4H)-one]: 30.8%.
With `CCN(CC)S(=O)(=O)c1cccc(C2=NC(=Cc3cccs3)C(=O)O2)c1` [F112, N,N-diethyl-3-(5-oxo-4-(thiophen-2-ylmethylene)-4,5-dihydrooxazol-2-yl)benzene sulfonamide], the inhibition at 30 µM came out at 3.1%.
In the case of `COc1ccccc1C1=NC(=Cc2sc3nc(C)nc(C)c3c2C)C(=O)O1` [F113, 2-(2-Methoxyphenyl)-4-((2,4,5-trimethylthieno[2,3-d]pyrimidin-6-yl)methylene) oxazol-5(4H)-one], the inhibition at 30 µM was 3.5%.
On the same count and under the same terms, with `COc1ccccc1C1=NC(=Cc2ccc(N(C)C)s2)C(=O)O1` [F114, 4-((5-(Dimethylamino)thiophen-2-yl)methylene)-2-(2-methoxyphenyl)oxazol-5(4H)-one] the figure was 3.9%; with `Cc1ccc(C=C2N=C(c3cccs3)OC2=O)s1` [F115, 4-((5-Methylthiophen-2-yl)methylene)-2-(thiophen-2-yl)oxazol-5(4H)-one], 2.8%.

Still in this assay, the particulars now being: CHO-K1; read-out: Pendrin inhibitory activity at 30 μM (%).
As for `CC(=O)Nc1ccc(C2=NC(=Cc3ccc(N(C)CCCl)cc3)C(=O)O2)cc1` [F86, N-(4-(4-(4-((2-chloroethyl)(methyl)amino)benzylidene)-5-oxo-4,5-dihydrooxazol-2-yl)phenyl)acetamide], the inhibition at 30 µM was 3.3%.
